Target: T1, NPC1L1 (Homo sapiens, UniProt Q9UHC9)
T1 construct: from tissue; host or cells: small intestine of hypercholesterolemic patients (in vivo, clinical trial)
T1 sequence (Q9UHC9 22-1332 isoform Q9UHC9-2 limits assumed): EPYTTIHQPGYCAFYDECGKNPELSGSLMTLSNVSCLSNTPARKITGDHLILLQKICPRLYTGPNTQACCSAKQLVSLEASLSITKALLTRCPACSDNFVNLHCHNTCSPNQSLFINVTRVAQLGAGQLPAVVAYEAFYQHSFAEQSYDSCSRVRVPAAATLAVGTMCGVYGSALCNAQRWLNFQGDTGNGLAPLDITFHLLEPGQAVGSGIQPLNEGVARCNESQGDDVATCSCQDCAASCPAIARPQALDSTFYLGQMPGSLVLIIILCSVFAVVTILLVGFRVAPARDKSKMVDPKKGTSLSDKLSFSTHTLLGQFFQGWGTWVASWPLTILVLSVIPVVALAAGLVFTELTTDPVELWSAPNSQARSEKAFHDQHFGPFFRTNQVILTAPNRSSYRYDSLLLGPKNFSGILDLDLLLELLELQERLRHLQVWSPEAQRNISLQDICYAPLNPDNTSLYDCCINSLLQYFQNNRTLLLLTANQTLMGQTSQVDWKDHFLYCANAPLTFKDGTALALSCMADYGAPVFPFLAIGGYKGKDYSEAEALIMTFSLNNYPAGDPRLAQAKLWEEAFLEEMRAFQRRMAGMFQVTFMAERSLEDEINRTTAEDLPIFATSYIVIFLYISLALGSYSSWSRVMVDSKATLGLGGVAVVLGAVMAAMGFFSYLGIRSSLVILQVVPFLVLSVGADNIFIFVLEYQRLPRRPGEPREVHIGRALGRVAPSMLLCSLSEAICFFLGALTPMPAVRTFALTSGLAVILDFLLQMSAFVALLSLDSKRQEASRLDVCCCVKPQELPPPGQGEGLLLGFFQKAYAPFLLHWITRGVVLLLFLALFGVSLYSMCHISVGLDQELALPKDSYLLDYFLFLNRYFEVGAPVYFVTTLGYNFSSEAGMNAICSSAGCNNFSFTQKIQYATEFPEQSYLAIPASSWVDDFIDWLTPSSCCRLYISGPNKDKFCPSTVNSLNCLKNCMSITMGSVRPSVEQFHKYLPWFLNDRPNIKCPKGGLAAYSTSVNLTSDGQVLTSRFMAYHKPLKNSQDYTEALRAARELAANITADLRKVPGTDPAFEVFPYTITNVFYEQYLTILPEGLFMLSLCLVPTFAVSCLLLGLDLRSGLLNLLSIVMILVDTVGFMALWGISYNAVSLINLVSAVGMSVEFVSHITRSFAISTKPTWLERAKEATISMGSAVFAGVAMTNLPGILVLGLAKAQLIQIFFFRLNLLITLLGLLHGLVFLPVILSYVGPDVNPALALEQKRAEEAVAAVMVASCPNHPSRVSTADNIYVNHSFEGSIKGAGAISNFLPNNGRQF
Experiment: EASE trial: LDL-C response to six weeks of ezetimibe 10 mg/day added to stable statin therapy, analysed by NPC1L1 genotype/haplotype
Type: in vivo
Conditions: for Least-Squares (adjusted) Mean (n,/Stderr), percent change in LDL-C: Extreme responders N = 239; for Odds Ratio, extreme responder association with SNP: g.-18C > A; for Adjusted Least Squares Mean, LDL-C response: extreme responder data set
Method: Genotyping assays were developed for a number of novel and known common variants with minor allele frequencies greater than 4% that were identified in Example 1. Genetic association analysis was performed with these SNPs in a clinical trial cohort (EASE), described below, to assess whether DNA sequence variants in NPC1L1 are associated with changes in the levels of a variety of plasma cholesterol components in hypercholesterolemia patients in response to pharmacotherapy with ezetimibe and statins as compared to patients treated with a statin and placebo.
To study whether variations in NPC1L1 were associated with response to ezetimibe added to statin therapy, a study population was derived from the Ezetimibe Add-On to Statin for Effectiveness (EASE) Trial (Pearson et al., (2005) Mayo Clinic Proceedings, In Press). The EASE trial was a community-based, randomized, double-blind, placebo controlled study to evaluate the effects of six weeks of ezetimibe, 10 mg/day, added on to a stable regimen of statin therapy, on lipid biomarkers in hypercholesterolemic patients whose LDL-C levels exceeded the National Cholesterol Education Program (NCEP) Adult Treatment Panel (ATP) m guidelines for their coronary heart disease (CHD) risk category. At enrollment, patients taking a stable dose of statin (any dose, any brand) and following a NCEP Step 1 diet or similar cholesterol-lowering diet for at least six weeks prior to entry into the study were randomized to either the ezetimibe (n=2020, 2009 received the treatment) or placebo (n=1010, 1009 received the treatment) arm. From the ezetimibe group, 1208 patients provided consent for genomic analysis and were included in this study. A series of clinical measures corresponding to various cardiovascular risk factors were measured from samples obtained from all trial participants and are summarized by Pearson et al., supra.
Twenty one SNPs from Table 4 (Example 1) were converted to valid genotyping assays, thirteen of which had allele frequencies greater than 2% in all EASE sub-populations. TaqMan Allelic Discrimination assays (Livak, (1999) Genet. Anal. 14:143-49) were performed using Primer Express software and the Assay-by-Design service offered by Applied Biosystems (Foster City, Calif.). […] All probe/primer sets were designed to function using universal reaction and cycling conditions.
The twenty one selected SNPs were genotyped in 1,208 individuals participating in the ezetimibe+statin treatment arm of the EASE trial. A series of clinical measures corresponding to various cardiovascular risk factors were taken on all trial participants (Tables 4a-d). Thirteen selected SNPs genotyped in the EASE cohort were confirmed as having common allele frequencies in this cohort, i.e., an allele frequency of greater than 2% in all EASE sub-populations. […] This could reflect the increased power in the larger EASE cohort to make such detections (see Table 5).
The mean (SD) for total plasma cholesterol, HDL cholesterol (HDL-C), and LDL cholesterol (LDL-C) was 211.0 (34.9), 48.6 (11.5), and 129.1 (30.0) mg/dL, respectively (Pearson et al., supra). […] The distribution of these measurements was similar in the subjects enrolled in this genetic study (Pearson et al., supra). […] No significant associations were found between these response predictive variables and any of the tagging SNPs.
Genetic association analysis was carried out in the EASE cohort with LDL-C response to ezetimibe treatment considered as the primary outcome variable. Individual SNPs, haplotypes, and haplotype combinations were the principal explanatory variables used in the analyses. General linear models were used to estimate the effects of genotypes, haplotypes, and diplotypes on the LDL-C response phenotype. Baseline LDL-C levels, sex, age, and race were investigated to determine if they gave rise to significant effects. Baseline LDL-C levels associated with significant effects in all models and were therefore included in all analyses. […]

Least-Squares (adjusted) Mean (n,/Stderr), percent change in LDL-C (g.1679C > G C/C): C/C: −17.49 (143/2.71) %
Least-Squares (adjusted) Mean (n,/Stderr), percent change in LDL-C (g.1679C > G C/G): C/G: −25.16 (85/3.51) %
Least-Squares (adjusted) Mean (n,/Stderr), percent change in LDL-C (g.1679C > G G/G): G/G: −40.93 (11/9.76) %
Odds Ratio, extreme responder association with SNP (baseline LDL-C as covariate table, extreme responders N = 239, CI (1.59, 5.44)): Odds Ratio = 2.94-
Least-Squares (adjusted) Mean, percent change in LDL-C (baseline LDL-C as covariate, extreme responders N = 239, g.-18C > A C/C): C/C: −17.8%
Least-Squares (adjusted Mean), percent change from baseline LDL-C (baseline LDL-C as covariate, g.-18C > A A/A): −26.5%
Least-Squares (adjusted Mean), percent change from baseline LDL-C (baseline LDL-C as covariate, g.-18C > A C/A): −27.9%
Least-Squares (adjusted Mean), percent change from baseline LDL-C (baseline LDL-C as covariate, g.-18C > A C/C): −24.2%
Least-Squares (adjusted Mean), percent change from baseline LDL-C (baseline LDL-C as covariate, g.-133A > G A/A): −25.9%
Least-Squares (adjusted Mean), percent change from baseline LDL-C (baseline LDL-C as covariate, g.-133A > G A/G): −24.8%
Least-Squares (adjusted Mean), percent change from baseline LDL-C (baseline LDL-C as covariate, g.-133A > G G/G): −21.9%
Least-Squares (adjusted Mean), percent change from baseline LDL-C (baseline LDL-C as covariate, g.1679C > G C/C): −24.5%
Least-Squares (adjusted Mean), percent change from baseline LDL-C (baseline LDL-C as covariate, g.1679C > G C/G): −26%
Least-Squares (adjusted Mean), percent change from baseline LDL-C (baseline LDL-C as covariate, g.1679C > G G/G): −27.9%
Least-Squares (adjusted Mean), percent change from baseline LDL-C (baseline LDL-C as covariate, g.19224G > A A/A): −28.6%
Least-Squares (adjusted Mean), percent change from baseline LDL-C (baseline LDL-C as covariate, g.19224G > A G/A): −25.8%
Least-Squares (adjusted Mean), percent change from baseline LDL-C (baseline LDL-C as covariate, g.19224G > A G/G): −25%
Least-Squares (adjusted Mean), percent change from baseline LDL-C (baseline LDL-C as covariate, g.19259T > C C/C): −26.2%
Least-Squares (adjusted Mean), percent change from baseline LDL-C (baseline LDL-C as covariate, g.19259T > C T/C): −25.2%
Least-Squares (adjusted Mean), percent change from baseline LDL-C (baseline LDL-C as covariate, g.19259T > C T/T): −25%
Least-Squares (adjusted Mean), percent change from baseline LDL-C (baseline LDL-C as covariate, g.28650A > G A/A): −24.3%
Least-Squares (adjusted Mean), percent change from baseline LDL-C (baseline LDL-C as covariate, g.28650A > G A/G): −26.6%
Least-Squares (adjusted Mean), percent change from baseline LDL-C (baseline LDL-C as covariate, g.28650A > G G/G): −28%
additional decrease in absolute LDL-C levels (corresponding to a 15% relative increase in LDL-C reductions): ~5 mg/dL
Adjusted Least Squares Mean, LDL-C response (diplotype A-A-C / A-C-C): −38.20%
Adjusted Least Squares Mean, LDL-C response (diplotype A-A-G / A-C-C): −34.80%
Adjusted Least Squares Mean, LDL-C response (diplotype A-A-G / A-C-G): −40.29%
Adjusted Least Squares Mean, LDL-C response (diplotype A-A-G / G-C-C): −29.06%
Adjusted Least Squares Mean, LDL-C response (diplotype A-C-C / A-C-C): −21.78%
Adjusted Least Squares Mean, LDL-C response (diplotype A-C-C / A-C-G): −4.60%
Adjusted Least Squares Mean, LDL-C response (diplotype A-C-C / G-C-C): −14.60%
Adjusted Least Squares Mean, LDL-C response (diplotype A-C-G / A-C-G): −41.46%
Adjusted Least Squares Mean, LDL-C response (diplotype A-C-G / G-C-C): −24.20%
Adjusted Least Squares Mean, LDL-C response (diplotype G-C-C / G-C-C): 3.93%
Adjusted Least Squares Mean, LDL-C response (diplotype G-C-C / G-C-G): −66.96%
Adjusted Least Squares Mean (stderr), LDL-C response (extreme responders, 3-SNP haplotype A-A-G, 0 copies (count 181)): −17.32 (2.38) %
Adjusted Least Squares Mean (stderr), LDL-C response (extreme responders, 3-SNP haplotype A-A-G, 1 copy (count 58)): −33.69 (4.21) %
Adjusted Least Squares Mean (stderr), LDL-C response (extreme responders, 3-SNP haplotype G-C-C, 0 copies (count 139)): −24.51 (2.75) %
Adjusted Least Squares Mean (stderr), LDL-C response (extreme responders, 3-SNP haplotype G-C-C, 1 copy (count 92)): −18.62 (3.38) %
Adjusted Least Squares Mean (stderr), LDL-C response (extreme responders, 3-SNP haplotype G-C-C, 2 copies (count 8)): 3.93 (11.45) %
mean LDL-C percent response (extreme responders, g.−18C>A heterozygotes): 33.98%
increase in efficacy / increased reduction in LDL-C (extreme responders, g.−18C>A heterozygotes vs homozygous common allele): 100%
mean LDL-C percent response (extreme responders, homozygous for the common allele of g.−18C>A (176/239)): 16.8%
Odds Ratio, extreme responder association with SNP (extreme responders N = 239, 95% CI 1.59, 5.44): Odds ratio** = 2.94-
increased LDL-C response / greater reduction in LDL-C (g.−18C>A minor allele carriers compared to homozygous major allele, EASE cohort): 15%
SMILES: O=C1[C@H](CC[C@H](O)c2ccc(F)cc2)[C@@H](c2ccc(O)cc2)N1c1ccc(F)cc1 [ezetimibe, 1-(4-fluorophenyl)-3(R)-[3-(4-fluorophenyl)-3(S)-hydroxypropyl]-4(S)-(4-hydroxyphenyl)-2-azetidinone]

From US20090192135A1, “Human Niemann Pick C1-Like 1 Gene (NPC1L1) Polymorphisms and Methods of Use Thereof” (SCHERING CORPORATION, priority 2005, published 2009)
